Data on 30 molecules can be found in patent US5234934A, “Aminopropanol derivatives, process for their preparation and pharmaceutical compositions comprising the same” (priority 1989, dated 1993).

Data set [1] deals with aconitine-induced ECG alterations. Nature of the data set: animal or person. It is filed as in vivo, rat. The conditions noted are these: Rattus norvegicus; for ED50 / change in vivo at 4 mg/kg: iv; for ED50: read-out: ED50 iv. (antiarrhythmic); for change in vivo at 4 mg/kg / change in vivo at 100 mg/kg: read-out: Effect % (antiarrhythmic); for change in vivo at 100 mg/kg: po. Here is the method: The test was carried out by using the modified method of Marmo et al. on rats weighing 160 to 200 g. The animals were narcotised by ethyl uretane (1.2 g/kg ip.). Aconitin was administered intravenously in a dose of 75 /ug/kg in the form of a bolus injection. The ECG alterations were monitored in standard II lead by 5 minutes after the administration of aconitine. The observed alterations were classified into classes 0 to 5. The compounds of the invention were administered 2 minutes or 60 minutes before the parenteral or oral administration of aconitine, respectively. […]
class 1: sometimes an extrasystole occurs class 2: each second one is an extrasystole class 3: extrasystoles in groups class 4: each one is an extrasystole class 5: fibrillation, death
(Marmo, E., DiGiacomo, S., Imperatore, A.: Arzeimittel-Forschung 20, 12/1970/)

Data set [2] is described as follows: acute toxicity test in mice (Litchfield and Wilcoxon). The conditions noted are these: mouse, in vivo, po., 14 days observation. It is filed as in vivo, mouse. The procedure:
The test for acute toxicity was carried out by using 10 white mice (CFLP strain) (both male and female), weighing 18 to 22 g in each dose group. The compounds of the invention were administered orally in a dose of 20 ml/kg.
The animals were kept in a plastic box on wood chips in a room of room temperature. They could consume tap water and standard mouse feed ad libitum. The toxicity data were determined by the method of Litchfield and Wilcoxon (Litchfield, J. T., Wilcoxon, F. W.: J. Pharmacol. Exp. Ther. 96, 99/1949/).

Data set [3] has as its system hexobarbital narcosis. Nature of the data set: narcosis potentiating effect (hexobarbital sleeping time). The conditions noted are these: for ED50: Mus musculus, po, read-out: ED50 (narcosis potentiation); for TI (therapeutic index): narcosis potentiation, mice, po.
Protocol: The narcosis potentiating effect of the compounds of the invention were examined on white mice, with 6 animals in each group. The mice were administered orally with the compounds of the invention, then both the control and the test groups were intravenously added 40 mg/kg of hexobarbital in order to make the mice sleep (Kaergard et al.).

Regarding `CC(C)(C)NCC(O)CO/N=C1\CCCC\C1=C/c1ccccc1Cl` (racemic) [Example 23, R,S-(E)-(2-Chlorophenyl-methylene)-1-(E)-[3-(1,1-dimethylethylamino)-2-hydroxy-propoxyimino]-cyclohexane], in data set [1], the ED50 was found to be 0.36 mg/kg and the change in vivo at 4 mg/kg was -83%. In data set [2], this molecule registered an LD50 at 336 h of 130 mg/kg. Also, in data set [3], the ED50 stood at 16 mg/kg and the “TI (therapeutic index)” value is 8.
For `CC(C)N(CC(O)CO/N=C1\CCCCCC\C1=C/c1ccccc1)C(C)C` (racemic) [Example 19, R,S-2-(E)-Phenylmethylene-1-(E)-{3-[bis(1-methylethyl)-amino]-2-hydroxy-propoxyimino}-cyclooctane], in data set [1], the ED50 came to 3.29 mg/kg and the change in vivo at 4 mg/kg was -76%. For the same molecule, the LD50 at 336 h in data set [2] came to 800 mg/kg. In data set [3], the ED50 stood at 26 mg/kg and the “TI (therapeutic index)” value was found to be 31.
With `Cc1cccc(C)c1OCC(C)N` (stereo not drawn) [Mexiletine, reference compound], the change in vivo at 4 mg/kg in data set [1] is -21%.
For the molecule `CC(C)N(CC(O)CO/N=C1\CCCCC\C1=C/c1ccccc1)C(C)C` (racemic) [Example 14, R,S-2-(E)-Phenylmethylene-1-(E)-{3-[bis-(1-methylethyl)-amino]-2-hydroxy-propoxyimino}-cycloheptane], in data set [1], the ED50 turned out to be 1.64 mg/kg and the change in vivo at 4 mg/kg was -83%. The LD50 at 336 h in data set [2] turned out to be 900 mg/kg. For the same molecule, in data set [3], the ED50 is 80 mg/kg and the “TI (therapeutic index)” value turned out to be 11.
`COc1ccc(CCNCC(O)CO/N=C2\CCCC\C2=C/c2ccccc2)cc1OC` (racemic) [Example 7] registered an LD50 at 336 h in data set [2] of over 1000 mg/kg. Besides, in data set [3], the ED50 was 70 mg/kg and the “TI (therapeutic index)” value is 14.
In data set [2], `OC(CO/N=C1\CCCC\C1=C/c1ccccc1)CN1CCN(c2cccc(C(F)(F)F)c2)CC1` (racemic) [Example 53, R,S-2-(E)-Phenylmethylene-1-(E)-3-[4-(3-trifluoromethyl)-phenyl-1-piperazinyl]-2-hydroxy-propoxyimino-cyclohexane] gave an LD50 at 336 h of over 1000 mg/kg.
Turning to `CCCC(C)(COC(N)=O)COC(N)=O` [Meprobamate, reference compound], in data set [3], the ED50 amounted to 260 mg/kg and the “TI (therapeutic index)” value worked out at 4.2.
For the molecule `CC(C)(C)NCC(O)CO/N=C1\CCCC\C1=C/c1ccccc1` (racemic) [Example 2, R,S-2-(E)-Phenylmethylene-1-(E)-[3-(1,1-dimethylethyl-amino)-2-hydroxy-propoxyimino]-cyclohexane], in data set [1], the change in vivo at 4 mg/kg was -43%. For the same molecule, the LD50 at 336 h in data set [2] turned out to be 600 mg/kg.
In the case of `COc1ccc([C@@H]2Sc3ccccc3N(CCN(C)C)C(=O)[C@@H]2OC(C)=O)cc1` [Dilthiazem, reference compound], in data set [1], the change in vivo at 4 mg/kg is -27%.
As for `OC(CO/N=C1\CCCC\C1=C/c1ccccc1)CN1CCCCC1` (racemic) [Example 9, R,S-2-(E)-Phenylmethylene-1-(E)-(3-piperidinyl-2-hydroxypropoxyimino)-cyclohexane], the LD50 at 336 h in data set [2] worked out at 700 mg/kg. In data set [3], the ED50 amounted to 30 mg/kg and the “TI (therapeutic index)” value amounted to 23.
`CN1CCN(CC(O)CO/N=C2\CCCCC\C2=C/c2ccccc2)CC1` (racemic) [Example 17, R,S-2-(E)-Phenylmethylene-1-(E)-[3-(4-methyl-1-piperazinyl)-2-hydroxy-propoxyimino]-cycloheptane]: the LD50 at 336 h in data set [2] is over 1000 mg/kg.
For `CCCN(CCC)CC(O)CO/N=C1\CCCC\C1=C/c1ccc(Cl)c(Cl)c1` (racemic) [Example 34, R,S-2-(E)-(3,4-Dichlorophenyl-methylene)-1-(E)-(3-/bis-n-propyl/-amino-2-hydroxy-propoxyimino)-cyclohexane], the LD50 at 336 h in data set [2] is over 1000 mg/kg. Further, in data set [3], the ED50 came out at 145 mg/kg and the “TI (therapeutic index)” value is over 7.
For `COc1ccccc1/C=C1\CCCC\C1=N/OCC(O)CN1CCOCC1` (racemic) [Example 37, R,S-2-(E)-(2-Methoxyphenyl-methylene)-1-(E)-(3-morpholinyl-2-hydroxy-propoxyimino)-cyclohexane] the same measures were over 1000 mg/kg, 50 mg/kg and over 20.
In data set [2], `OC(CNC1CC1)CO/N=C1\CCCC\C1=C/c1ccc(Cl)cc1` (racemic) [Example 27, R,S-2-(E)-(4-Chlorophenyl-methylene)-1-(E)-(3-cyclopropylamino-2-hydroxy-propoxyimino)-cyclohexane] yielded an LD50 at 336 h of about 1000 mg/kg. For the same molecule, in data set [3], the 50% effective dose (ED50) is 35 mg/kg and the “TI (therapeutic index)” value was found to be 29.
Consider `CC(C)NCC(O)COc1cccc2ccccc12` (stereo not drawn) [Propranolol, reference compound], for which, in data set [1], the median effective dose (ED50) was 5.81 mg/kg, the change in vivo at 4 mg/kg is -7% and the change in vivo at 100 mg/kg is -50%.
With `CC(C)(C)NCC(O)CO/N=C1\CCCC\C1=C/c1ccc(Cl)cc1` (racemic) [Example 31, R,S-2-(E)-(4-Chlorophenyl-methylene)-1-(E)-[3-(1,1-dimethylethylamino)-2'-hydroxy-propoxyimino]-cyclohexane], the 50% lethal dose (LD50) at 336 h in data set [2] is about 1000 mg/kg.
As to `COc1ccc(/C=C2\CCCCC\C2=N/OCC(O)CNC2CC2)cc1` (racemic) [Example 42, R,S-2-(E)-(4-Methoxyphenyl-methylene)-1-(E)-(3-cyclopropylamino-2-hydroxy-propoxyimino)-cycloheptane], in data set [2], the median lethal dose (LD50) at 336 h was over 1000 mg/kg. In addition, in data set [3], the ED50 worked out at 14.5 mg/kg and the “TI (therapeutic index)” value was over 69.
For `CC(C)NCC(O)CO/N=C1\CCCC\C1=C/c1ccc(Cl)cc1` (racemic) [Example 28, R,S-2-(E)-(4-Chlorophenyl-methylene)-1-(E)-[3-(1-methylethylamino)-2-hydroxy-propoxyimino]-cyclohexane] the same measures were 1500 mg/kg, 75 mg/kg and 20.
Take `OC(CO/N=C1\CCCC\C1=C/c1ccccc1)CN1CCCC1` (racemic) [Example 8, R,S-2-(E)-Phenylmethylene-1-(E)-(3-pyrrolidinyl-2-hydroxy-propoxyimino)-cyclohexane]: in data set [2], the 50% lethal dose (LD50) at 336 h is 800 mg/kg.
Still for that read-out and setting: as for `OC(CO/N=C1\CCCC\C1=C/c1ccccc1)CN1CCN(c2cccc(Cl)c2)CC1` (racemic) [Example 52, R,S-2-(E)-Phenylmethylene-1-(E)-{3-[4-(3-chlorophenyl)-1-piperazinyl]-2-hydroxy-propoxyimino}-cyclohexane], the figure is over 1000 mg/kg.
`CC(C)NCC(O)COc1cccc2[nH]ccc12` (stereo not drawn) [Pindolol, reference compound]: the change in vivo at 100 mg/kg in data set [1] was -52%.
On to `C#CC(C)(C)NCC(O)CO/N=C1\CCCCC\C1=C/c1ccccc1` (racemic) [Example 16, R,S-2-(E)-Phenylmethylene-1-(E)-[3-(1,1-dimethylpropin-2-yl)amino-2-hydroxy-propoxyimino]-cycloheptane], for which, in data set [2], the LD50 at 336 h is over 1000 mg/kg.
Take `OC(CO/N=C1\CCCC\C1=C/c1ccccc1)CN1CCC(Cc2ccccc2)CC1` (racemic) [Example 54]: in data set [1], the ED50 came out at 3.47 mg/kg and the change in vivo at 4 mg/kg was -56%. The LD50 at 336 h in data set [2] was 600 mg/kg.
Consider `COc1cccc(/C=C2\CCCC\C2=N/OCC(O)CN2CCN(Cc3ccccc3)CC2)c1` (racemic) [Example 39, R,S-2-(E)-(3-Methoxyphenyl-methylene)-1-(E)-{3-[(4-phenylmethyl)-1-piperazinyl]-2-hydroxy-propoxyimino}-cyclohexane], for which, in data set [2], the LD50 at 336 h is over 1000 mg/kg.
In the case of `O=C(OC(CO/N=C1\CCCCCC\C1=C/c1ccccc1)CN1CCOCC1)c1ccccc1` (racemic) [Example 69, R,S-2-(E)-Phenylmethylene-1-(E)-[3'-(4-morpholinyl)-2'-benzoyloxy-propoxyimino]-cyclooctane], the LD50 at 336 h in data set [2] is over 1000 mg/kg.
In data set [2], `CCCCNCC(O)CO/N=C1\CCCCCC\C1=C/c1ccccc1` (racemic) [Example 49, R,S-2-(E)-Phenylmethylene-1-(E)-(3-butylamino-2-hydroxypropoxyimino)-cyclooctane] displayed an LD50 at 336 h of over 1000 mg/kg.
In the case of `COc1ccc(/C=C2\CCCCC\C2=N/OCC(O)CNC(C)C)cc1` (racemic) [Example 50, R,S-2-(E)-(4-Methoxyphenyl-methylene)-1-(E)-/3-(1-methylethylamino)-2-hydroxy-propoxyimino/-cycloheptane], the LD50 at 336 h in data set [2] came to 1000 mg/kg.
On to `CC(C)(C)NCC(O)CO/N=C1\CCC\C1=C/c1ccccc1` (racemic) [Example 22, R,S-2-(E)-Phenylmethylene-1-(E)-[3-(1,1-dimethylethylamino)-2-hydroxy-propoxyimino]-cyclopentane], for which, in data set [2], the LD50 at 336 h came out at 900 mg/kg.
For the molecule `CNC1=Nc2ccc(Cl)cc2C(c2ccccc2)=[N+]([O-])C1` [Chlordiazepoxide, reference compound], in data set [3], the ED50 came to 10 mg/kg and the “TI (therapeutic index)” value amounted to 62.
Regarding `CCCCCCNCC(O)CO/N=C1\CCCC\C1=C/c1ccccc1` (racemic) [Example 3, R,S-2-(E)-Phenylmethylene-1-(E)-(3-hexylamino-2-hydroxy-propoxyimino)-cyclohexane], in data set [2], the LD50 at 336 h was over 1000 mg/kg.

Usually ED50 stands for the midpoint of the dose-response relation. The term LD50 denotes the dose expected to kill half of the subjects tested.
